Assay results published in patent US20230113037A1 (Bayer Aktiengesellschaft, priority 2019, published 2023).

How the values were obtained:
[1] = target: T1, AHR (Mus musculus, UniProt P30561); assay: In vitro assay 3: antagonism in mouse cell line (AHR transactivation, firefly luciferase reporter, kynurenic acid prestimulated); type: cell-based; conditions: Hepa 1c1c7 cells, 200 μM kynurenic acid, 20 hours, firefly luciferase reporter, read-out: AHR Antagonism Mouse IC50
T1 sequence (P30561 1-848 P471L/N533S/M589L): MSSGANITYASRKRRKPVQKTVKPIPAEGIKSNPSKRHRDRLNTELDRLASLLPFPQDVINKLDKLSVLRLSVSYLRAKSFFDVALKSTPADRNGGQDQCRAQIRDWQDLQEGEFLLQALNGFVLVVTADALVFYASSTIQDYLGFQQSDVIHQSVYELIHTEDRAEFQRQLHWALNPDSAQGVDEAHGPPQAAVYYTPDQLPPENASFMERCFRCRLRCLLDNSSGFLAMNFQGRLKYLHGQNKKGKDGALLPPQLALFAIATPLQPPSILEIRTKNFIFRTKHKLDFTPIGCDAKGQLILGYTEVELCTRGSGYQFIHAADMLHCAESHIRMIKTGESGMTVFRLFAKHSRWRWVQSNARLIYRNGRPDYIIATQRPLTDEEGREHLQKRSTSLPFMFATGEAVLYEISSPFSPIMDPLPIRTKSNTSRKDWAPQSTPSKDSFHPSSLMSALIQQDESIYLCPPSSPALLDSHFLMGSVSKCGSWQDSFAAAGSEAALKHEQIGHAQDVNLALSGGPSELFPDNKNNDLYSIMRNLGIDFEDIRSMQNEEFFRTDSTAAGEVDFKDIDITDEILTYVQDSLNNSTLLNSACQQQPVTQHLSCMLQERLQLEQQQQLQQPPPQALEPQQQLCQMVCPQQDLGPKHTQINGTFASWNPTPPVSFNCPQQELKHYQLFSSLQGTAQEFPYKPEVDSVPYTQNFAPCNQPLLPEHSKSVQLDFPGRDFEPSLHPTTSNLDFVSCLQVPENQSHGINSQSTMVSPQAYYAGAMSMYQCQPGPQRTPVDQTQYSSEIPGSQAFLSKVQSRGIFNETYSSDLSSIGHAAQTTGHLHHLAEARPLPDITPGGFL
Procedure, shortened: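 Mouse cells stably carrying a DRE-driven AHR-inducible firefly luciferase reporter were prestimulated with the endogenous agonist kynurenic acid before compound addition. Luciferase read by SteadyGlo; cells without kynurenic acid served as full-inhibition control, with normalization to positive and negative controls. Repeat tests reported as mean or median.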

[2] = target: T2, AHR (Homo sapiens, UniProt P35869); assay: In vitro assay 1: antagonism in human cell line (AHR transactivation, firefly luciferase reporter, kynurenic acid prestimulated); type: cell-based; conditions: AHR Antagonism Human IC50 [M], firefly luciferase reporter
T2 construct: U87 MG glioblastoma cells (ATCC #HTB-14) endogenously expressing AHR; endogenous in cells; host or cells: U87 MG glioblastoma cells (ATCC #HTB-14)
T2 sequence (P35869 11-848): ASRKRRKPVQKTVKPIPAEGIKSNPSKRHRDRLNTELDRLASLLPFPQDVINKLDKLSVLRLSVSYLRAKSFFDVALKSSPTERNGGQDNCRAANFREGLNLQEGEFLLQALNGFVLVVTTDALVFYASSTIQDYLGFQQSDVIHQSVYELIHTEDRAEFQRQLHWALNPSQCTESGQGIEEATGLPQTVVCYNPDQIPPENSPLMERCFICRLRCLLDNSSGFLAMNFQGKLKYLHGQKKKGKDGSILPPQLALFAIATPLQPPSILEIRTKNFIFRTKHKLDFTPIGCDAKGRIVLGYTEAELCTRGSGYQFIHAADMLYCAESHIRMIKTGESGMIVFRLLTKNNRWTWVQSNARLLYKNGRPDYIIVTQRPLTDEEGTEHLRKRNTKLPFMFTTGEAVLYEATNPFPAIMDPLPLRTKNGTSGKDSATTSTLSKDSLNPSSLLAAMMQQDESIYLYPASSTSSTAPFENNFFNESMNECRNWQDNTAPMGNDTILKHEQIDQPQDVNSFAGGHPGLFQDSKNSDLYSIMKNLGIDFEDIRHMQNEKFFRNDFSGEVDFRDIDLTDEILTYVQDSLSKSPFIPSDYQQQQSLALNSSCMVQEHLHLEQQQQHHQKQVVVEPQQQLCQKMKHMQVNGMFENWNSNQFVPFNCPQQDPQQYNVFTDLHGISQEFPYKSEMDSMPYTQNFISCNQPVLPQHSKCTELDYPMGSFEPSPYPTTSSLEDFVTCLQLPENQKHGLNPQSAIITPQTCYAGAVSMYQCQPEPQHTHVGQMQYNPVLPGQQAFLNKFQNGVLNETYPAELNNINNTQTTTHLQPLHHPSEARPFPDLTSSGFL
Procedure, shortened: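 U87 MG + DRE-firefly/constitutive-Renilla stable reporters; kynurenic acid prestim; dual-luc read; Renilla = tox; normalized vs pos/neg controls (pos: 150 μM KYNA + 5 μM staurosporine).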

With `COc1ccc(-c2nc3c4cccc(OCC(C)(C)O)c4nc(N[C@@H]4CCCCNC4=O)n3n2)cc1` [Example 997, (3R)-3-{[7-(2-hydroxy-2-methylpropoxy)-2-(4-methoxyphenyl)[1,2,4]triazolo[1,5-c]quinazolin-5-yl]amino}azepan-2-one] the IC50 [1] was 138 nM and the IC50 [2] was 8.11e-08 M.
Work on `COc1ccc(-c2nc3c4cccc(OC5CCC5)c4nc(N[C@@H]4CCCCNC4=O)n3n2)cc1` [Example 998, (3R)-3-{[7-(cyclobutyloxy)-2-(4-methoxyphenyl)[1,2,4]triazolo[1,5-c]quinazolin-5-yl]amino}azepan-2-one] yielded an IC50 [1] of 279 nM and an IC50 [2] of 4.16e-07 M.
`COc1ccc(-c2nc3c4cccc(OC5CC5)c4nc(N[C@@H]4CCCCNC4=O)n3n2)cc1` [Example 999, (3R)-3-{[7-(cyclopropyloxy)-2-(4-methoxyphenyl)[1,2,4]triazolo[1,5-c]quinazolin-5-yl]amino}azepan-2-one] gave an IC50 [1] of 4.27 nM and an IC50 [2] of 6.91e-09 M.
`COc1ccc(-c2nc3c4cccc(OCCC(C)(C)O)c4nc(N[C@@H]4CCCCNC4=O)n3n2)cc1` [Example 1000, (3R)-3-{[7-(3-hydroxy-3-methylbutoxy)-2-(4-methoxyphenyl)[1,2,4]triazolo[1,5-c]quinazolin-5-yl]amino}azepan-2-one] showed an IC50 [1] of 8.3 nM and an IC50 [2] of 9.07e-09 M.
In the case of `COc1ccc(-c2nc3c4cccc(N5CCCC5=O)c4nc(N[C@@H]4CCCCNC4=O)n3n2)cc1` [Example 1001, (3R)-3-{[2-(4-methoxyphenyl)-7-(2-oxopyrrolidin-1-yl)[1,2,4]triazolo[1,5-c]quinazolin-5-yl]amino}azepan-2-one], the IC50 [1] is reported as 5040 nM and the IC50 [2] is reported as 3.54e-07 M.
Work on `COc1ccc(-c2nc3c4cccc(C5COC5)c4nc(N[C@@H]4CCCCNC4=O)n3n2)cc1` [Example 1002, (3R)-3-{[2-(4-methoxyphenyl)-7-(oxetan-3-yl)[1,2,4]triazolo[1,5-c]quinazolin-5-yl]amino}azepan-2-one] yielded an IC50 [1] of 42 nM and an IC50 [2] of 1.26e-09 M.
`COCc1cccc2c1nc(N[C@@H]1CCCCNC1=O)n1nc(-c3ccc(OC)cc3)nc21` [Example 1003, (3R)-3-{[7-(methoxymethyl)-2-(4-methoxyphenyl)[1,2,4]triazolo[1,5-c]quinazolin-5-yl]amino}azepan-2-one] showed an IC50 [1] of 4.06 nM and an IC50 [2] of 9.15e-10 M.
Molecule `COCc1cccc2c1nc(N[C@@H]1CCCCNC1=O)n1nc(-c3cnn(C)c3)nc21` [Example 1004, (3R)-3-{[7-(methoxymethyl)-2-(1-methyl-1H-pyrazol-4-yl)[1,2,4]triazolo[1,5-c]quinazolin-5-yl]amino}azepan-2-one] has an IC50 [1] of 266 nM and an IC50 [2] of 1.9e-08 M.
